{"source": "paper PMC4762688", "about": "(Journal of nuclear medicine : official publication, Society …, 2015)", "key": {"[1]": {"assay": "Blood clearance / pharmacokinetics from serial blood samples"}, "[2]": {"tested_on": "thrombus (mural carotid artery thrombosis)", "assay": "PET / SPECT imaging in rat carotid crush injury model", "assay_type": "in vivo"}, "[3]": {"tested_on": "thrombus (mural carotid artery thrombosis)", "assay": "Ex vivo biodistribution", "conditions": "crush model, biodistribution at 120 minutes"}, "125I-labeled thrombus": {"tested_on": "125I-labeled thrombus", "assay": "Triple-isotope SPECT/PET/CT imaging with 125I-labeled thrombus", "assay_type": "in vivo, rat", "conditions": "ferric chloride model"}, "[4]": {"target": "soluble fibrin fragment DD(E) (Homo sapiens, UniProt P02671+P02675+P02679, DEL433-453)", "assay_type": "binding", "conditions": "DD(E) assay"}, "immobilized fibrin": {"target": "T1, immobilized fibrin (Homo sapiens, UniProt P02671+P02675+P02679)", "T1 sequence (P02671 36-629 limits assumed)": "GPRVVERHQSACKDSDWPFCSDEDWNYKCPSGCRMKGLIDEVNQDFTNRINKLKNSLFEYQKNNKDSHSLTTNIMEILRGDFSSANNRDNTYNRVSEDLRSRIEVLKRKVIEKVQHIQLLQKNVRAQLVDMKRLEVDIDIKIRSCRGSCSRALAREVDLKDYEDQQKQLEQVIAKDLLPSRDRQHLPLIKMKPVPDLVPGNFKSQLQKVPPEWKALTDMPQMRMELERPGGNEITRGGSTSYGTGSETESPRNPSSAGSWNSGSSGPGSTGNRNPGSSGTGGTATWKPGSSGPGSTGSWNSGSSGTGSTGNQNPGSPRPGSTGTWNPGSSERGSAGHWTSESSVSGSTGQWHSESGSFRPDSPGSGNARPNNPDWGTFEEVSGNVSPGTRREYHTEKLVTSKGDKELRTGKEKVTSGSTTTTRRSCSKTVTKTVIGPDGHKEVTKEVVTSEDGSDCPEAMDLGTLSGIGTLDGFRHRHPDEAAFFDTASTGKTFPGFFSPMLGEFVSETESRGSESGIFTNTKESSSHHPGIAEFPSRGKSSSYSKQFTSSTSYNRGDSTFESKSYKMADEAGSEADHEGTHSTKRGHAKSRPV", "T1 sequence (P02675 45-491 limits assumed)": "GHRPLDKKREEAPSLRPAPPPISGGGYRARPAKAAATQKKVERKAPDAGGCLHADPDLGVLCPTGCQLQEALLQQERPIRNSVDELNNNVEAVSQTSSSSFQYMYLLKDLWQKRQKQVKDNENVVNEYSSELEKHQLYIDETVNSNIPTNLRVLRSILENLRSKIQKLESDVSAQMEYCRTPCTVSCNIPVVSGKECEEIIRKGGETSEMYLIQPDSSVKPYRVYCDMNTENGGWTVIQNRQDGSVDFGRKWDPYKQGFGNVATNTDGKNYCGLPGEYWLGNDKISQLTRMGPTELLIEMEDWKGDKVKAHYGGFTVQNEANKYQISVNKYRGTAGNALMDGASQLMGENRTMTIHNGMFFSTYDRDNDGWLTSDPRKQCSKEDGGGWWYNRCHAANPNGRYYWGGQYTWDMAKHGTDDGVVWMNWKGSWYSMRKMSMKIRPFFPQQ", "T1 sequence (P02679 27-437 isoform P02679-2 limits assumed)": "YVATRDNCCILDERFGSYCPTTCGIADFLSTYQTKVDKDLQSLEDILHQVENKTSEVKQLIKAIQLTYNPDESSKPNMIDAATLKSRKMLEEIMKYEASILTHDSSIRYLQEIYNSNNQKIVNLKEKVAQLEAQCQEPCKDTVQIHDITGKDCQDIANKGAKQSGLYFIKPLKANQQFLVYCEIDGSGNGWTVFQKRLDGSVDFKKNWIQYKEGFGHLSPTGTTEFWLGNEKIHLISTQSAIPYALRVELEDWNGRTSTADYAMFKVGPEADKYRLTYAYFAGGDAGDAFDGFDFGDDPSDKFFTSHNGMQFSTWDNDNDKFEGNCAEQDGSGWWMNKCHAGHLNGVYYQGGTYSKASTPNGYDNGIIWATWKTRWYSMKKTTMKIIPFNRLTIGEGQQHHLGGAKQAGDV", "assay": "Functional fibrin-binding assay: blood plasma incubated with immobilized fibrin", "conditions": "blood samples collected after injection"}}, "note": "Entries after “also recorded” stand apart in the source; their conditions may differ. Bridge positions count the residues as written; N and C are the ends. Square brackets hold non-standard residues; d marks the D form. Peptide text beside a SMILES is read from it. * marks the point of attachment. X1 = O=C(O)CN1CCN(CC(=O)O)CCN(C(CCC(=O)NCc2ccc(CN*)cc2)C(=O)O)CC1; NODAGA = O=C(O)CN1CCN(CC(=O)O)CCN(C(CCC(=O)*)C(=O)O)CC1; Tyr(3-Cl) = N[C@@H](Cc1ccc(O)c(Cl)c1)C(=O)O; X3 = NCCN(CCN)CCC(=O)NCc1ccc(CN*)cc1; Hyp = O=C(O)[C@@H]1C[C@@H](O)CN1; X2 = NCCN(CCN)CCC(=O)*"}
{"smiles": "CC[C@H](C)[C@H](NC(=O)[C@H](Cc1c[nH]cn1)NC(=O)[C@@H]1CSSC[C@H](NC(=O)[C@H](Cc2c[nH]cn2)NC(=O)[C@H](Cc2ccccc2)NC(=O)CCN(CCN)CCN)C(=O)N2C[C@H](O)C[C@H]2C(=O)N[C@@H](Cc2ccc(O)c(Cl)c2)C(=O)N[C@@H](CC(=O)O)C(=O)N[C@@H](CC(C)C)C(=O)N1)C(=O)N[C@@H](CC(C)C)C(=O)NCc1ccc(CNC(=O)CCN(CCN)CCN)cc1", "note": "[^99mTc-FBP16, metal not drawn] (X2-FHC[Hyp][Tyr(3-Cl)]DLCHIL-X3; disulfide 3-8)", "values": [{"measurement": "half-life", "setting": "[1]; male, Sprague-Dawley, rat, in vivo, iv", "value": "5.9 ± 16.2", "unit": "min"}, {"measurement": "clearance of radioactivity from blood", "setting": "[1]; serial blood draws 0 to 120 minutes p.i.", "value": "residual radioactivity persisting in the blood even after 120 minutes"}, {"measurement": "thrombus detection on PET / SPECT images", "setting": "[2]", "value": "ineffective"}, {"measurement": "thrombus uptake", "setting": "[3]", "value": "low target uptake"}]}
{"smiles": "CC[C@H](C)[C@H](NC(=O)[C@H](Cc1c[nH]cn1)NC(=O)[C@@H]1CSSC[C@@H](NC(=O)[C@H](Cc2c[nH]cn2)NC(=O)[C@H](Cc2ccccc2)NC(=O)CCC(C(=O)O)N2CCN(CC(=O)O)CCN(CC(=O)O)CC2)C(=O)N2C[C@H](O)C[C@H]2C(=O)N[C@@H](Cc2ccc(O)c(Cl)c2)C(=O)N[C@@H](CC(=O)O)C(=O)N[C@@H](CC(C)C)C(=O)N1)C(=O)N[C@@H](CC(C)C)C(=O)NCc1ccc(CNC(=O)CCC(C(=O)O)N2CCN(CC(=O)O)CCN(CC(=O)O)CC2)cc1", "note": "(stereo partly drawn) [^64Cu-D-Cys-FBP8, metal not drawn] ({NODAGA}-FH[dC][Hyp][Tyr(3-Cl)]DLCHIL-X1; disulfide 3-8)", "values": [{"measurement": "thrombus detection on PET / SPECT images", "setting": "[2]", "value": "no uptake in the thrombus"}, {"measurement": "localization to 125I-labeled thrombus (SPECT/PET)", "setting": "125I-labeled thrombus", "value": "did not reveal significant uptake at the target site"}, {"measurement": "displacement of the fluorescent probe", "setting": "[4]", "value": "no displacement"}, {"measurement": "fibrin binding of blood samples (plasma incubated with immobilized fibrin)", "setting": "immobilized fibrin", "value": "does not bind to fibrin; also recorded: significantly lower binding"}]}
